As a reminder, the pIC50 is the negative decadic logarithm of the IC50, by convention in mol/L. Read a high pIC50 as a low IC50.

Molecules are shown by their SMILES. pIC50: −log10 of the molar value. Where a SMILES comes first, the peptide text is derived from it. [ ]: non-standard residue; d: D form. The star is where a group is joined. Met(O2) = CS(=O)(=O)CC[C@H](N)C(=O)O; hPhe = N[C@@H](CCc1ccccc1)C(=O)O; Cbz = O=C(OCc1ccccc1)*; Boc = CC(C)(C)OC(=O)* A value given as a limit tells only on which side of the number the result lay.

For experiment [1], the system named is Human rhinovirus sp. Kind of experiment: Antiviral activity against human rhinovirus-14 in HeLa cells. It is filed as functional, organism-based.
For experiment [2], the system named is HeLa. Kind of experiment: Cytotoxic activity against HeLa cells using XTT assay. It is filed as functional. As to conditions: Homo sapiens, read-out: TC50 (the source's name). (Tetrazolium dyes change colour on reduction, which living cells bring about.)

In turn, `CS(=O)(=O)CC[C@@H](C=O)NC(=O)[C@H](Cc1ccccc1)NC(=O)OCc1ccccc1` showed a pIC50 in experiment [1] of 5.47. Moreover, in experiment [2], the CC50 is over 224 µM.
In experiment [1], `NC(=O)CC[C@@H](C=O)NC(=O)[C@H](Cc1ccccc1)NC(=O)OCc1ccccc1` had a pIC50 of 4.38. The CC50 in experiment [2] is over 224 µM.
Consider `CSCC[C@@H](C=O)NC(=O)[C@H](CC(C)C)NC(=O)[C@H](CC(C)C)NC(C)=O` (Ac-Leu-Leu-Met-aldehyde), for which the negative logarithm of the IC50 (pIC50) in experiment [1] is 4.63. Also, in experiment [2], the CC50 was 37.1 µM.
`CC(=O)N[C@@H](CC(C)C)C(=O)N[C@@H](CC(C)C)C(=O)N[C@H](C=O)CCS(C)(=O)=O` (Ac-Leu-Leu-[Met(O2)]-aldehyde) showed a negative-log IC50 (pIC50) in experiment [1] of 4.09. The CC50 in experiment [2] was over 224 µM.
The compound `CSCC[C@@H](C=O)NC(=O)[C@H](Cc1ccccc1)NC(=O)OC(C)(C)C` (Boc-Phe-Met-aldehyde) gave a pIC50 in experiment [1] of 4.08. Besides, the CC50 in experiment [2] stood at 65.4 µM.
On the same counts, the results for `CC(C)(C)OC(=O)N[C@@H](Cc1ccccc1)C(=O)N[C@H](C=O)CCS(C)(=O)=O` (Boc-Phe-[Met(O2)]-aldehyde) are 4.15 and 148 µM.
Consider `CC(C)C[C@H](NC(=O)[C@@H](NC(=O)OC(C)(C)C)C(C)C)C(=O)N[C@@H](Cc1ccccc1)C(=O)N[C@H](C=O)CCC(N)=O` (Boc-VLFQ-aldehyde), for which the pIC50 in experiment [1] is 3.40. The CC50 in experiment [2] is 0.6 µM.
In the case of `CSCC[C@@H](C=O)NC(=O)[C@H](CC(C)C)NC(=O)OCc1ccccc1` (Cbz-Leu-Met-aldehyde), in experiment [1], the pIC50 is 4.33. Also, the CC50 in experiment [2] was 83 µM.
`CC(C)C[C@H](NC(=O)OCc1ccccc1)C(=O)N[C@H](C=O)CCS(C)(=O)=O` (Cbz-Leu-[Met(O2)]-aldehyde): the pIC50 in experiment [1] is 4.41. Besides, the CC50 in experiment [2] was over 224 µM.
For `CSCC[C@@H](C=O)NC(=O)[C@H](Cc1ccccc1)NC(=O)OCc1ccccc1` (Cbz-Phe-Met-aldehyde), the pIC50 in experiment [1] is 5.01. In addition, the CC50 in experiment [2] was determined as 42.2 µM.
In turn, `CSCC[C@@H](C=O)NC(=O)[C@H](CCc1ccccc1)NC(=O)OCc1ccccc1` (Cbz-[hPhe]-Met-aldehyde) had a pIC50 in experiment [1] of 4.69. The CC50 in experiment [2] was 13.5 µM.
`CS(=O)(=O)CC[C@@H](C=O)NC(=O)[C@H](CCc1ccccc1)NC(=O)OCc1ccccc1` (Cbz-[hPhe]-[Met(O2)]-aldehyde) showed a pIC50 in experiment [1] of 4.09. Further, the CC50 in experiment [2] stood at 162 µM.
The like results for `CS(=O)(=O)CC[C@@H](C=O)NC(=O)C(Cc1ccccc1)NC(=O)OCc1ccccc1` (single isomer, unassigned) were, in that order, under 3.65 and over 224 µM.
`CCCC[C@@H](C=O)NC(=O)[C@H](CC(C)C)NC(=O)OCc1ccccc1` [CALPEPTIN] had a pIC50 in experiment [1] of 4.75. Further, the CC50 in experiment [2] came out at 22.1 µM.
`CC(=O)N[C@@H](CC(C)C)C(=O)N[C@@H](CC(C)C)C(=O)N[C@H](C=O)CCCNC(=N)N` [LEUPEPTIN] gave a pIC50 in experiment [1] of under 3.65. Further, in experiment [2], the CC50 was over 224 µM.

The values above are taken from ChEMBL document CHEMBL1128943, “Small peptidic aldehyde inhibitors of human rhinovirus 3C protease” (Bioorg Med Chem Lett, 1996).
